Source: the NIST ThermoML archive (doi:10.1016/j.jct.2015.08.031)
Numbers after ± are expanded uncertainties.

Assay: molar heat capacity at constant pressure
Conditions: 101.33 kPa, Crystal, relaxation calorimetry

[Cu] [copper]
Conditions	molar heat capacity at constant pressure [J/K/mol]
1.93 K	0.001713 ± 0.00012
2.15 K	0.002021 ± 0.00014
2.39 K	0.002319 ± 0.00017
2.65 K	0.002809 ± 0.0002
2.95 K	0.003326 ± 0.00024
3.28 K	0.003967 ± 0.00028
3.64 K	0.004911 ± 0.00035
4.04 K	0.005973 ± 0.00042
4.48 K	0.007493 ± 0.00053
4.97 K	0.009444 ± 0.00066
5.51 K	0.01204 ± 0.00085
6.11 K	0.01543 ± 0.0011
6.78 K	0.0199 ± 0.0014
7.52 K	0.02598 ± 0.0018
8.33 K	0.03421 ± 0.0024
9.24 K	0.04517 ± 0.0032
10.25 K	0.06013 ± 0.0042
11.34 K	0.08043 ± 0.0056
12.58 K	0.1091 ± 0.0076
13.96 K	0.149 ± 0.01
15.48 K	0.2052 ± 0.014
17.18 K	0.2844 ± 0.02
19.06 K	0.3981 ± 0.028
21.16 K	0.5588 ± 0.023
23.49 K	0.7857 ± 0.032
26.06 K	1.094 ± 0.044
28.95 K	1.514 ± 0.062
32.07 K	2.062 ± 0.084
35.61 K	2.768 ± 0.11
39.52 K	3.635 ± 0.15
43.85 K	4.662 ± 0.19
48.66 K	5.846 ± 0.24
54.01 K	7.178 ± 0.29
59.94 K	8.631 ± 0.35
66.51 K	10.16 ± 0.41
73.83 K	11.68 ± 0.47
81.93 K	13.27 ± 0.54
90.94 K	14.71 ± 0.6
100.89 K	16.04 ± 0.65
111.02 K	17.3 ± 0.7
121.12 K	18.35 ± 0.74
131.2 K	19.24 ± 0.78
141.26 K	19.93 ± 0.81
151.41 K	20.52 ± 0.83
161.51 K	21.05 ± 0.85
171.6 K	21.5 ± 0.87
181.69 K	21.94 ± 0.89
191.78 K	22.25 ± 0.9
201.87 K	22.55 ± 0.92
212 K	22.82 ± 0.93
222.11 K	23.11 ± 0.94
232.19 K	23.37 ± 0.95
242.21 K	23.57 ± 0.96
252.34 K	23.79 ± 0.97
262.41 K	23.94 ± 0.97
272.42 K	24.1 ± 0.98
282.6 K	24.3 ± 0.99
292.63 K	24.41 ± 0.99
297.94 K	24.49 ± 0.99
302.69 K	24.51 ± 1
302.72 K	24.54 ± 1
307.82 K	24.55 ± 1
312.89 K	24.59 ± 1
317.83 K	24.7 ± 1
322.91 K	24.68 ± 1
328.03 K	24.79 ± 1
333.05 K	24.87 ± 1
338.06 K	24.81 ± 1
343.13 K	24.9 ± 1
348.29 K	25.01 ± 1
353.34 K	25.13 ± 1
358.42 K	25.09 ± 1
363.5 K	25.13 ± 1
368.53 K	25.23 ± 1
373.56 K	25.3 ± 1
378.59 K	25.4 ± 1
383.61 K	25.45 ± 1
388.61 K	25.48 ± 1
393.64 K	25.58 ± 1
398.65 K	25.68 ± 1

O=C(O)c1ccccc1 [benzoic acid]
Conditions	molar heat capacity at constant pressure [J/K/mol]
1.93 K	0.01333 ± 0.0011
2.15 K	0.01845 ± 0.0015
2.39 K	0.0255 ± 0.0019
2.66 K	0.03397 ± 0.0025
2.96 K	0.04707 ± 0.0034
3.29 K	0.06572 ± 0.0047
3.65 K	0.08963 ± 0.0064
4.05 K	0.1233 ± 0.0088
4.49 K	0.1714 ± 0.012
4.99 K	0.2363 ± 0.017
5.54 K	0.3302 ± 0.023
6.14 K	0.4631 ± 0.033
6.81 K	0.6487 ± 0.046
7.56 K	0.9052 ± 0.064
8.38 K	1.253 ± 0.088
9.29 K	1.714 ± 0.12
10.26 K	2.266 ± 0.16
11.36 K	3.021 ± 0.21
12.61 K	3.971 ± 0.28
13.99 K	5.144 ± 0.36
15.52 K	6.537 ± 0.46
17.23 K	8.219 ± 0.57
19.12 K	10.17 ± 0.71
21.21 K	12.39 ± 0.5
23.54 K	14.97 ± 0.61
26.1 K	17.79 ± 0.72
28.96 K	20.88 ± 0.85
32.16 K	24.14 ± 0.98
35.67 K	27.61 ± 1.1
39.58 K	31.21 ± 1.3
43.9 K	34.8 ± 1.4
48.73 K	38.39 ± 1.6
54.07 K	42.02 ± 1.7
60 K	45.71 ± 1.9
66.57 K	49.33 ± 2
73.89 K	52.81 ± 2.1
82 K	56.69 ± 2.3
91.01 K	60.28 ± 2.4
100.97 K	63.46 ± 2.6
111.11 K	67.66 ± 2.7
121.2 K	71.28 ± 2.9
131.23 K	75.08 ± 3
141.33 K	78.93 ± 3.2
151.47 K	82.66 ± 3.4
161.56 K	86.28 ± 3.5
171.65 K	90.21 ± 3.7
181.75 K	94.38 ± 3.8
191.83 K	98.14 ± 4
201.92 K	101.91 ± 4.1
212.02 K	106.35 ± 4.3
222.12 K	110.99 ± 4.5
232.21 K	115.4 ± 4.7
242.21 K	119.97 ± 4.9
252.4 K	124.67 ± 5.1
262.46 K	128.8 ± 5.2
272.51 K	133.51 ± 5.4
282.55 K	138.2 ± 5.6
292.7 K	141.62 ± 5.8
302.71 K	144.34 ± 5.9
